Like-named read-outs stand apart in the source and are kept apart here.
Key:
[1] = target: T1, GST-cGB-PDE5 fusion protein (cGMP binding sites of human PDE5A) (Homo sapiens, UniProt O76074); assay: cGMP binding assay with GST-cGB-PDE5 fusion protein; conditions: for competition with cGMP binding to GST-cGB-PDE5 at high concentration: 100 μM compound, cGMP 2 μM
T1 construct: made in house; host or cells: E. coli BL21 (DE3)
Description: RT-PCR method is used to obtain the cGB domain of PDE5 with forward and reverse primers designed from bovine PDE5A cDNA sequence (McAllister-Lucas L. M. et al, J. Biol. Chem. 268, 22863-22873, 1993) and the selection among PDE 1-10 families. 5′-3′, Inc. kits for total RNA followed by oligo (dT) column purification of mRNA are used with HT-29 cells. […] It is then cloned into pGEX-5X-3 glutathione-S-transferase (GST) fusion vector (Pharmacia Biotech )with tac promoter, and EcoR1 and XhoI cut sites. The fusion vector is then transfected into E. Coli BL21 (DE3) bacteria (Invitrogen). The transfected BL21 bacteria is grown to log phase, and then IPTG is added as an inducer. The induction is carried at 20° C. for 24 hrs. The bacteria are harvested and lysed. The soluble cell lysate is incubated with GSH conjugated Sepharose 4B (GSH-Sepharose 4B). The GST-cGB-PDE5 fusion protein can bind to the GSH-Sepharose beads, and the other proteins are washed off from beads with excessive cold PBS.
Then, the mixture is transferred to Brandel MB-24 cell harvester with GF/B as the filter membrane followed by 2 washes with 10 mL of cold 5 mM potassium buffer(pH 6.8). The membranes are then cut out and transferred to scintillation vials followed by the addition of 1 mL of H2O and 6 mL of Ready Safe™ liquid scintillation cocktail to each vial. The vials are counted on a Beckman LS 6500 scintillation counter.
The quenching by filter membrane or other debris are also calibrated.

U937 cells = assay: apoptosis induction of U937 cells (active caspase 3 immunofluorescence); assay type: cell-based; conditions: U937 cells, 24 hours
Experimental: U937 cells (from ATCC Rockville, Md.) were grown in RPMI media supplemented with 5% FCS, glutamine, antibiotic/antimycotic and sodium pyruvate. Total RNA was isolated from two U937 cultures, one treated with 5 nM TPA for 48 hours and one grown in normal media as listed above, using the Rouche High Pure RNA Isolation Kit (cat# 1 828 665) as per manufacturers protocol. cDNA was then synthesized from the total RNA using GibcoBRL SuperscriptII (Cat # 18064-022) reverse transcriptase as per manufacturers protocol. The resulting cDNA was used as a template for RT-PCR reactions using primer sets specific for PDE2 (forward: […], reverse: […]) or PDE5 (forward: […], reverse: […]). mRNA for PDE2 and 5 were both present in the untreated U937 cells. Upon treatment with TPA, the relative amounts of PDE2 mRNA increased 5 fold. Therefore, U937 cells treated with TPA and driven to differentiate into an activated macrophage like state have elevated levels of PDE2 mRNA (see FIG. 1).
The presence of PDE2 and PDE5 protein within U937 cells was confirmed by indirect immunofluorescence (IIF). U937 cells were cultured as above. Two U937 cultures, one grown in the presence of 5 nM TPA for 48 hours and one grown in normal media were processed. All cultures were collected by centrifugation (Shandon Cytospin, 2 minutes @ 600 rpm) onto poly-L lysine-coated slides and immediately fixed in fresh 3% paraformaldehyde buffered in PBS for 10 minutes. Adherent cultures were grown on coverslips and fixed as above. Cells were permeablized in 0.2% triton-100 for 2 minutes. Slides were blocked with blocking buffer (5% goat serum, 5% glycerol, 1% gelatin from cold water fish skin and 0.04% NaN3 in PBS) for 1 hour at room temperature.
Adherent cells were dislodged by treatment with trypsin EDTA for 5 minutes at 37° C. Cells were then processed for IIF as described above, except that an antibody specific for active caspase 3 was used (as per manufacturer's protocol) instead of antibodies to PDE2 or 5 (Promega Cat. #G7481). The anti-active caspase 3 antibody was diluted 1:200 in blocking buffer and processed according to the manufacturer's protocol. The resulting slides were observed under a fluorescent microscope and a digital images were obtained.
The level of apoptosis in U937 cells was quantified by scoring 500 consecutive cells for the presence of active caspase 3.
The cells were harvested and processed for IIF as described above using an antibody that specifically recognizes active caspase 3. […] Therefore, the inhibition of only PDE4 or PDE5 alone (i.e. without the inhibition of PDE2) is not sufficient to induce apoptosis in U937 cells.

[2] = target: T2, COX I (purified cyclooxygenase Type I) (Ovis aries, UniProt P05979); assay: Cyclooxygenase (COX) inhibition, purified COX; assay type: biochemical, ram; conditions: arachidonic acid 100 μM, 2.0 min, 37° C.
T2 construct: The COX was purified from ram seminal vesicles; from tissue; host or cells: ram seminal vesicles
T2 sequence (P05979 25-600): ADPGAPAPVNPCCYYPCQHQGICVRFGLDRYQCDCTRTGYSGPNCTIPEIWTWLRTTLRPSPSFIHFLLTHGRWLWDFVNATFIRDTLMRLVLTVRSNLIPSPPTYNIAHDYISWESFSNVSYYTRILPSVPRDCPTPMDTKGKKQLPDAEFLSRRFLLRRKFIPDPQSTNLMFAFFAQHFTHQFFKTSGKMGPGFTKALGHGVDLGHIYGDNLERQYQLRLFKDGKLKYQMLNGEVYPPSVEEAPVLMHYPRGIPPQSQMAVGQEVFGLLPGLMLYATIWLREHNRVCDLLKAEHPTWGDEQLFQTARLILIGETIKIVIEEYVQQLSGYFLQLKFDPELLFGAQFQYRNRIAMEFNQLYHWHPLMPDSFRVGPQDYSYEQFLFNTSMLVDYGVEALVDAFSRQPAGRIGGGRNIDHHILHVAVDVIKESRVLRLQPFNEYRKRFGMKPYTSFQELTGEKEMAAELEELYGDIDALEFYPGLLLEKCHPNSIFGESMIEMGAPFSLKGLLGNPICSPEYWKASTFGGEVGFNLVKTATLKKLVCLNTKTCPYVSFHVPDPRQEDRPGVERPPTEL
Experimental: COX catalyzes the formation of prostaglandins and thromboxane by the oxidative metabolism of arachidonic acid. The compound of Example 1 of this invention, as well as a positive control, (sulindac sulfide) were evaluated to determine whether they inhibited purified cyclooxygenase Type I (see Table 1 below).
The compounds of this invention were evaluated for inhibitory effects on purified COX. The COX was purified from ram seminal vesicles, as described by Boopathy, R. and Balasubramanian, J., 239:371-377, 1988. COX activity was assayed as described by Evans, A. T., et al., “Actions of Cannabis Constituents on Enzymes Of Arachidonate Metabolism Anti-Inflammatory Potential,” Biochem. Pharmacol., 36:2035-2037, 1987. Briefly, purified COX was incubated with arachidonic acid (100 μM) for 2.0 min at 37° C. in the presence or absence of test compounds. The assay was terminated by the addition of TCA, and COX activity was determined by absorbance at 530 nm.

native bovine PDE5 = native bovine PDE5 (Bos taurus, UniProt Q28156); conditions: read-out: Kd of cGMP binding, native bovine PDE5; cited from earlier work

T1 sequence (O76074 46-539 limits assumed): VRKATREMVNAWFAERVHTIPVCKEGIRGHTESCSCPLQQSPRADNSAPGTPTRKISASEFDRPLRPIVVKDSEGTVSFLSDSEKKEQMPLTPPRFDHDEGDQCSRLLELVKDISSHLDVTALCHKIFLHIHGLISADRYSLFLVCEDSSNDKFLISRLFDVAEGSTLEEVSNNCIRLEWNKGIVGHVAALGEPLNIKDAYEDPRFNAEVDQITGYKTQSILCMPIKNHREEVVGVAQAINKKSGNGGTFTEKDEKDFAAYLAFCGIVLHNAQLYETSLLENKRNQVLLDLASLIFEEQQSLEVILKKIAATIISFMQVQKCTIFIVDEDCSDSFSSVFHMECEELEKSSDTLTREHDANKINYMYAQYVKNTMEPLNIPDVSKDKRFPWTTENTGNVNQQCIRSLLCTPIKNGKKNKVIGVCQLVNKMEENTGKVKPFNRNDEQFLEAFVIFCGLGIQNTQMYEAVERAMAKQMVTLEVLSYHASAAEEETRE

Row | Compound | competition with cGMP in binding to the cGMP binding sites of GST-cGB-PDE5 ([1]; 3H-cGMP 2 μM) | also measured
1 | O=c1[nH]cnc2c1ncn2[C@@H]1O[C@@H]2COP(=O)(O)O[C@H]2[C@H]1O [Cyclic IMP] |  | competition with cGMP binding to GST-cGB-PDE5 at high concentration [1]: partially compete
2 | Nc1nc2c(nc(Br)n2[C@@H]2O[C@@H]3COP(=O)(O)O[C@H]3[C@H]2O)c(=O)[nH]1 [Example 8-bromo-cGMP, 8-bromo-cGMP] |  | competition with cGMP binding to GST-cGB-PDE5 at high concentration [1]: partially compete
3 | COc1ccc(C2CNC(=O)C2)cc1OC1CCCC1 (stereo not drawn) [rolipram, reference compound] |  | levels of apoptosis compared to normal background (active caspase 3) (U937 cells; 0.5 uM): No increase in the levels of apoptosis
4 | CC1=C(CC(=O)O)c2cc(F)ccc2/C1=C\c1ccc(S(C)(=O)=O)cc1 [exisulind] | None of the PDE5 inhibitors showed any competition | 
5 | CC1=C(CC(=O)NCc2ccccc2)c2cc(F)ccc2/C1=C\c1ccncc1 [Example 1, (Z)-5-Fluoro-2-Methyl-(4-Pyridinylidene)-3-(N-Benzyl)-Indenylacetamide] |  | inhibition at 100 µM [2]: < 25%
6 | CCCc1nn(C)c2c(=O)[nH]c(-c3cc(S(=O)(=O)N4CCN(C)CC4)ccc3OCC)nc12 [sildenafil, reference compound] |  | levels of apoptosis compared to normal background (active caspase 3) (U937 cells; 0.3 nM): No increase in the levels of apoptosis
7 | Nc1nc2c(ncn2[C@@H]2O[C@@H]3COP(=O)(O)O[C@H]3[C@H]2O)c(=O)[nH]1 [cGMP, cyclic 3′,5′-guanosine monophosphate] | specifically bound | Kd (native bovine PDE5): 1300 nM; Kd ([1]; read-out: Kd of cGMP binding to GST-cGB-PDE5 fusion protein, two cGMP binding sites): 1600 ± 200 nM
8 | O=c1ccn([C@@H]2O[C@@H]3COP(=O)(O)O[C@H]3[C@H]2O)c(=O)[nH]1 [cUMP, cyclic UMP] | did not compete | 
9 | CSc1ccc(/C=C2/C(C)=C(CC(=O)O)c3cc(F)ccc32)cc1 [Sulindac sulfide, sulindac sulfide, reference compound] | None of the PDE5 inhibitors showed any competition | inhibition at 100 µM [2]: 86%
10 | Nc1ncnc2c1ncn2[C@@H]1O[C@@H]2COP(=O)(O)O[C@H]2[C@H]1O [Cyclic AMP] |  | competition with cGMP in binding to the cGMP binding sites of GST-cGB-PDE5 [1]: did not compete
11 | Nc1ccn([C@@H]2O[C@@H]3COP(=O)(O)O[C@H]3[C@H]2O)c(=O)n1 [cCMP, cyclic CMP] | did not compete | 
12 | O=C(O)C1CCN(c2nc(NCc3ccc4c(c3)OCO4)c3cc(Cl)ccc3n2)CC1 [Example E4021] | None of the PDE5 inhibitors showed any competition | 
13 | CCCCOC1C2OP(=O)(O)OCC2OC1n1cnc2c(N)ncnc21 (stereo not drawn) [2′-O-butyl-cAMP] | did not compete | 
14 | CCCOc1ccccc1-c1nc2nn[nH]c2c(=O)[nH]1 [zaprinast] | None of the PDE5 inhibitors showed any competition | 
15 | CCCCOC1C2OP(=O)(O)OCC2OC1n1cnc2c(=O)[nH]c(N)nc21 (stereo not drawn) [2′-O-butyl-cGMP] | did not compete | 

From patent US20030073740A1, “Methods for treatment of lupus erythematosus” (priority 2001, published 2003)
